Reference: ChEMBL document CHEMBL5316300, “Discovery of TP0597850: A Selective, Chemically Stable, and Slow Tight-Binding Matrix Metalloproteinase-2 Inhibitor with a Phenylbenzamide-Pentapeptide Hybrid Scaffold” (J Med Chem, 2023)

Assays:
[1] = Metabolic stability in human serum assessed as parent compound remaining measured for 4 hrs; assay type: ADME, cell-free; conditions: read-out: Stability
[2] = target: T1, MMP-2/MMP-13 (Homo sapiens) (UniProt P08253+P45452); test: Selectivity ratio of IC50 for recombinant human MMP13 to IC50 for recombinant human MMP2; assay type: protein assay
[3] = target: T1, MMP-2/MMP-13 (Homo sapiens); test: Selectivity ratio of Ki for recombinant human MMP13 to Ki for recombinant human MMP2; assay type: protein assay
[4] = target: T2, 72 kDa type IV collagenase (Homo sapiens, UniProt P08253); test: Inhibition of human recombinant MMP2 using MOCAc-Lys-Pro-Leu-Gly-Leu-A2pr(Dnp)-Ala-Arg-N2 as substrate preincubated for 5 mins followed by substrate addition and measured after 120 mins by fluorescence based assay
Target sequence in this assay (P08253 whole entry): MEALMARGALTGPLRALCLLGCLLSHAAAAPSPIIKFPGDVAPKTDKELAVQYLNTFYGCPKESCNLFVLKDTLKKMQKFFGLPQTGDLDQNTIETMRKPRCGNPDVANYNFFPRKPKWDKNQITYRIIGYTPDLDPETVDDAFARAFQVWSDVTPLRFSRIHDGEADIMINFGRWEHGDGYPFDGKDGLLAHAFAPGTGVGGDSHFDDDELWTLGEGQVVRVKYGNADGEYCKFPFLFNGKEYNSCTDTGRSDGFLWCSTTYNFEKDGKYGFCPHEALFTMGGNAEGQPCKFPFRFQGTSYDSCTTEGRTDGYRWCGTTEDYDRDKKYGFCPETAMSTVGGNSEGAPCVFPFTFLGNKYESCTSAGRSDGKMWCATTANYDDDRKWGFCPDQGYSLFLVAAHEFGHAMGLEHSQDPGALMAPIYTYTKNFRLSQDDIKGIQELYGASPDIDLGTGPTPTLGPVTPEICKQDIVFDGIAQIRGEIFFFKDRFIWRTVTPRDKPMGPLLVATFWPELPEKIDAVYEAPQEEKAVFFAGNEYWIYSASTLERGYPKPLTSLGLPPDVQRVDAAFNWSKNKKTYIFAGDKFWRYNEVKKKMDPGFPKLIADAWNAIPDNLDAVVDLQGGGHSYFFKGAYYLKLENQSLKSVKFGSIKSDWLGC

Homo sapiens [5] = organism: Homo sapiens; test: Selectivity ratio of Ki for recombinant human MMP8 to Ki for recombinant human MMP2
Homo sapiens [6] = organism: Homo sapiens; test: Selectivity ratio of Ki for recombinant human MMP12 to Ki for recombinant human MMP2
Collagenase 3 = Collagenase 3 (Homo sapiens, UniProt P45452); test: Inhibition of human recombinant MMP13 using MOCAc-Lys-Pro-Leu-Gly-Leu-A2pr(Dnp)-Ala-Arg-N2 as substrate preincubated for 15 mins followed by substrate addition and measured after 120 mins by fluorescence based assay
[7] = target: T2, 72 kDa type IV collagenase; test: Inhibition of recombinant human MMP2 using MOCAc-Lys-Pro-Leu-Gly-Leu-A2pr(Dnp)-Ala-Arg-N2 as substrate preincubated for 10 to 15 mins followed by substrate addition and measured after 60 to 120 mins by fluorescence based assay
Target sequence in this assay (P08253 whole entry): as above

[8] = target: T2, 72 kDa type IV collagenase; test: Binding affinity to human MMP2 assessed as dissociative half-life
Target sequence in this assay (P08253 110-660 limits assumed): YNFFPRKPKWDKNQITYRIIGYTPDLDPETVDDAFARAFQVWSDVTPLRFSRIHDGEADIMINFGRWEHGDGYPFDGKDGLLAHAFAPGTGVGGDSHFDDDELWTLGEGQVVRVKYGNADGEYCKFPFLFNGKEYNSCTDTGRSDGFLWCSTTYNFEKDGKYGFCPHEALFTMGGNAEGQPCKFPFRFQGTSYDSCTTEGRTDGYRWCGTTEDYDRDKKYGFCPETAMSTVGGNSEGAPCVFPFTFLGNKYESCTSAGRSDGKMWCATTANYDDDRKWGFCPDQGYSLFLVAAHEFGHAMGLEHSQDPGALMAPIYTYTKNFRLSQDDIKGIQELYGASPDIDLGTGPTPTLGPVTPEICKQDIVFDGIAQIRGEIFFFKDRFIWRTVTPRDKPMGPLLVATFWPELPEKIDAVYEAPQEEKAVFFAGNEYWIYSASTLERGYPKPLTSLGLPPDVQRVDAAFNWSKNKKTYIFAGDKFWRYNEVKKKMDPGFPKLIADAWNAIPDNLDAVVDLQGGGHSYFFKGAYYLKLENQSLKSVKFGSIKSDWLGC

[9] = target: MMP-2/MMP-14 (Homo sapiens) (UniProt P50281+P08253); test: Selectivity ratio of Ki for recombinant human MMP14 to Ki for recombinant human MMP2; assay type: protein assay
[10] = target: Matrix metalloproteinase-14 (Homo sapiens, UniProt P50281); test: Inhibition of human recombinant MMP14 using MOCAc-Lys-Pro-Leu-Gly-Leu-A2pr(Dnp)-Ala-Arg-N2 as substrate preincubated for 15 mins followed by substrate addition and measured after 120 mins by fluorescence based assay
[11] = target: Matrix metalloproteinase-9 (Homo sapiens, UniProt P14780); test: Inhibition of human recombinant MMP9 using MOCAc-Lys-Pro-Leu-Gly-Leu-A2pr(Dnp)-Ala-Arg-N2 as substrate preincubated for 15 mins followed by substrate addition and measured after 120 mins by fluorescence based assay
[12] = target: T3, Macrophage metalloelastase (Homo sapiens, UniProt P39900); test: Inhibition of human recombinant MMP12 using MOCAc-Lys-Pro-Leu-Gly-Leu-A2pr(Dnp)-Ala-Arg-N2 as substrate preincubated for 15 mins followed by substrate addition and measured after 120 mins by fluorescence based assay
[13] = target: T3, Macrophage metalloelastase; test: Inhibition of human recombinant MMP12 using MOCAc-Lys-Pro-Leu-Gly-Leu-A2pr(Dnp)-Ala-Arg-N2 as substrate preincubated for 10 to 15 mins followed by substrate addition and measured after 60 to 120 mins by fluorescence based assay; conditions: read-out: IC50
[14] = target: MMP-1/MMP-2 (Homo sapiens) (UniProt P08253+P03956); test: Selectivity ratio of Ki for recombinant human MMP1 to Ki for recombinant human MMP2; assay type: protein assay
[15] = target: MMP-2/MMP-9 (Homo sapiens) (UniProt P08253+P14780); test: Selectivity ratio of Ki for recombinant human MMP9 to Ki for recombinant human MMP2; assay type: protein assay
[16] = target: T2, 72 kDa type IV collagenase; test: Inhibition of human recombinant MMP2 using MOCAc-Lys-Pro-Leu-Gly-Leu-A2pr(Dnp)-Ala-Arg-N2 as substrate preincubated for 15 mins followed by substrate addition and measured after 120 mins by fluorescence based assay
Target sequence in this assay (P08253 whole entry): as the sequence (P08253 whole entry) above

[17] = Chemical stability of the compound in phosphate buffer at pH 4 assessed as residual rate incubated for 2 weeks by HPLC analysis; assay type: physicochemical; conditions: read-out: Stability
[18] = Chemical stability of the compound in phosphate buffer at pH 7.4 assessed as residual rate incubated for 2 weeks by HPLC analysis; assay type: physicochemical; conditions: read-out: Stability
[19] = Chemical stability of the compound in phosphate buffer at pH 9 assessed as residual rate incubated for 2 weeks by HPLC analysis; assay type: physicochemical; conditions: read-out: Stability
Homo sapiens [20] = organism: Homo sapiens; test: Selectivity ratio of IC50 for recombinant human MMP12 to IC50 for recombinant human MMP2
Neutrophil collagenase = Neutrophil collagenase (Homo sapiens, UniProt P22894); test: Inhibition of human recombinant MMP8 using MOCAc-Lys-Pro-Leu-Gly-Leu-A2pr(Dnp)-Ala-Arg-N2 as substrate preincubated for 15 mins followed by substrate addition and measured after 120 mins by fluorescence based assay
Homo sapiens [21] = organism: Homo sapiens; test: Selectivity ratio of Ki for recombinant human MMP3 to Ki for recombinant human MMP2
Interstitial collagenase = target: T4, Interstitial collagenase (Homo sapiens, UniProt P03956); test: Inhibition of human recombinant MMP1 using MOCAc-Lys-Pro-Leu-Gly-Leu-A2pr(Dnp)-Ala-Arg-N2 as substrate preincubated for 15 mins followed by substrate addition and measured after 120 mins by fluorescence based assay
T4 sequence (P03956 whole entry): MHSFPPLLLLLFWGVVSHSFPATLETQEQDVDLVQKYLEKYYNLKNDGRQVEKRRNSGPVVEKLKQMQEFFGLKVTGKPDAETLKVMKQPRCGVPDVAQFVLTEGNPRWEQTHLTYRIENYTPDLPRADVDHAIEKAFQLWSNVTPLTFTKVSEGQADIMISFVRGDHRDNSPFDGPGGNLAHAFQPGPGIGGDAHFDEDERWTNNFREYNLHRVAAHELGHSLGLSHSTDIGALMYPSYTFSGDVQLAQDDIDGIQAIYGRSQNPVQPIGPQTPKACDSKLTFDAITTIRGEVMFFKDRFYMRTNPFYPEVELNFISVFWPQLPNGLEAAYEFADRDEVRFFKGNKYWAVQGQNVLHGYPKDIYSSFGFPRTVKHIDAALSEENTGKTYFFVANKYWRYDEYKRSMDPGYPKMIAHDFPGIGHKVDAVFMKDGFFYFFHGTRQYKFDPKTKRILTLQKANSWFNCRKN

Stromelysin-1 = Stromelysin-1 (Homo sapiens, UniProt P08254); test: Inhibition of human recombinant MMP3 using MOCAc-Lys-Pro-Leu-Gly-Leu-A2pr(Dnp)-Ala-Arg-N2 as substrate preincubated for 15 mins followed by substrate addition and measured after 120 mins by fluorescence based assay
Matrilysin = target: T5, Matrilysin (Homo sapiens, UniProt P09237); test: Inhibition of human recombinant MMP7 using MOCAc-Lys-Pro-Leu-Gly-Leu-A2pr(Dnp)-Ala-Arg-N2 as substrate preincubated for 15 mins followed by substrate addition and measured after 120 mins by fluorescence based assay
T5 sequence (P09237 whole entry): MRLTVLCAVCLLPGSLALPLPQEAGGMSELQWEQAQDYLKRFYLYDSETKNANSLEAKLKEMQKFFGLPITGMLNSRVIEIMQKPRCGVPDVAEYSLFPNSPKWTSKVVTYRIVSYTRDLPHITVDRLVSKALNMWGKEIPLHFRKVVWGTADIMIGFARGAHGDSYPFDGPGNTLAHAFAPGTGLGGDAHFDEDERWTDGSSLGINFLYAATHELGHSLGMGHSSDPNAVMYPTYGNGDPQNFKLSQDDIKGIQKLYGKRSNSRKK

T3 sequence (P39900 whole entry): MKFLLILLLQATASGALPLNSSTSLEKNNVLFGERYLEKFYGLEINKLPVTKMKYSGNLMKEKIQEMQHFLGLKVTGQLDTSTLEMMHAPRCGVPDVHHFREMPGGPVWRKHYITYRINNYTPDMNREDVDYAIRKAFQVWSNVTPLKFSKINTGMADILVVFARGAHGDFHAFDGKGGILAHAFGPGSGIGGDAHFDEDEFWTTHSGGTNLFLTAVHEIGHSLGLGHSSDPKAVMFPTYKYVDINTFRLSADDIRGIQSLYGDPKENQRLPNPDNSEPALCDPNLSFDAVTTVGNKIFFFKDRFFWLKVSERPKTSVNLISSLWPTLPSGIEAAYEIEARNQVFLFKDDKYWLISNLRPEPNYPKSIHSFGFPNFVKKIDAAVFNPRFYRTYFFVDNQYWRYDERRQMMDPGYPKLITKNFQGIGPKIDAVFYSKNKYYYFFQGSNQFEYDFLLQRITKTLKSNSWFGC
T1 sequence (P08253 whole entry, looked up, other chains not shown): as the sequence (P08253 whole entry) above
Chain of Neutrophil collagenase (P22894 whole entry): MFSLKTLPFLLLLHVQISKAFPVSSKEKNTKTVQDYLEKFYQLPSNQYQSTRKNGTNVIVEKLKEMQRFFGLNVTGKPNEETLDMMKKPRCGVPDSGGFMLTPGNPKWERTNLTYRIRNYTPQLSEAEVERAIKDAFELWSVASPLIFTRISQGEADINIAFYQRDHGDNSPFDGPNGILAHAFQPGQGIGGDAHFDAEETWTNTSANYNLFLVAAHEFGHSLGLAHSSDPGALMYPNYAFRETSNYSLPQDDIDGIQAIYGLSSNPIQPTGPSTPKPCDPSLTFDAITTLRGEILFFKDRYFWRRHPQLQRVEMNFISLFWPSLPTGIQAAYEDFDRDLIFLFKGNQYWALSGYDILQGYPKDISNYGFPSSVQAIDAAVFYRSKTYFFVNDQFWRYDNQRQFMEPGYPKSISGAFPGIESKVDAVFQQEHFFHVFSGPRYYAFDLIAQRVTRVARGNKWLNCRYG
Chain of Stromelysin-1 (P08254 whole entry): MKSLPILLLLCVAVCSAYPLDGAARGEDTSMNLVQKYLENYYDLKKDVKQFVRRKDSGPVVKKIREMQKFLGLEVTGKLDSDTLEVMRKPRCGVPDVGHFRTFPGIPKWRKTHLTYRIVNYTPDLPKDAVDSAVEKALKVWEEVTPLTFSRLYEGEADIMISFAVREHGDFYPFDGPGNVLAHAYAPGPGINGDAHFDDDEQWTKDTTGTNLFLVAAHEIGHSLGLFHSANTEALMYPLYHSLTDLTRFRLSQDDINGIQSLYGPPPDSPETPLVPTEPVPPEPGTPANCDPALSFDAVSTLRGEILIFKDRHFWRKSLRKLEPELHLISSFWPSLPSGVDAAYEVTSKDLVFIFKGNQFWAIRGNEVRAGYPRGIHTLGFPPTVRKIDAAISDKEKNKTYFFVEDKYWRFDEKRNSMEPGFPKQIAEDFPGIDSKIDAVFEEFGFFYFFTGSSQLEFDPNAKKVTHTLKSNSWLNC
Chain of MMP-1/MMP-2 (Homo sapiens) (P08253 whole entry, looked up, one chain of several): as the sequence (P08253 whole entry) above
Chain of Matrix metalloproteinase-9 (P14780 whole entry): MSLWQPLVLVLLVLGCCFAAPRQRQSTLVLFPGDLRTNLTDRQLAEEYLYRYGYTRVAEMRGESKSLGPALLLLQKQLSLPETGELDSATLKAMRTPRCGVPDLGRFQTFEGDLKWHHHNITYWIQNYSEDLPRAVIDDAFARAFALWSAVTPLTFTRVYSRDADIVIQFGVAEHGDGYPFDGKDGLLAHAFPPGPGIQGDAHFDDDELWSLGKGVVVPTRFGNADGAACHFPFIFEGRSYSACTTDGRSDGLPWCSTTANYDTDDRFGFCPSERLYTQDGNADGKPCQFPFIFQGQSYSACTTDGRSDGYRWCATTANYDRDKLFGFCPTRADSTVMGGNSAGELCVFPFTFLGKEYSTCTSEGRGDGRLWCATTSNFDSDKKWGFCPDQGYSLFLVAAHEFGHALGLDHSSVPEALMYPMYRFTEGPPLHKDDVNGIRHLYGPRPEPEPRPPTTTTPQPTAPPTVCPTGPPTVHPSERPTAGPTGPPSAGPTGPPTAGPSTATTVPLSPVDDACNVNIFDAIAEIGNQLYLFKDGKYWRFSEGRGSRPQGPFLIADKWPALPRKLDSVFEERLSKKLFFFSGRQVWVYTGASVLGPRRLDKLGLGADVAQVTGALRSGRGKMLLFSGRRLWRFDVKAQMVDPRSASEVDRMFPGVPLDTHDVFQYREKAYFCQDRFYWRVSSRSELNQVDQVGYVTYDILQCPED

`CC(C)C[C@H](NC(=O)[C@@H]1C[C@H](N)CN1C(=O)CC[C@@H](NS(=O)(=O)c1ccc(NC(=O)c2ccc(C(N)=O)cc2)cc1)C(=O)O)C(=O)N(C)[C@@H](CCC(=O)O)C(=O)NCCCCC(N)=O` showed a remaining at 4 h [1] of 93.1%, a Ratio IC50 [2] of 1100 and a Ratio Ki [3] of 3200. It also gave an IC50 [4] of 0.034 nM, a Ratio Ki (Homo sapiens [5]) of 53000 and a Ratio Ki (Homo sapiens [6]) of 5000. The Ki (Collagenase 3) was 110 nM, the Ki [7] was 0.034 nM and the T1/2 [8] was 4.42 h. It also gave a Ratio Ki [9] of 2000, a Ki [10] of 68 nM and a Ki [11] of 1900 nM. It also gave a Ki [12] of 170 nM, an IC50 [13] of 250 nM and a Ratio Ki [14] of 7.9e+06. For the same molecule, the Ratio Ki [15] was 56000, the IC50 [16] was 0.22 nM and the remaining at 336 h [17] was 98.7%. The remaining at 336 h [18] was 99%, the remaining at 336 h [19] was 98.1% and the Ratio IC50 (Homo sapiens [20]) was 1100. For the same molecule, the IC50 (Neutrophil collagenase) was 1800 nM, the Ratio Ki (Homo sapiens [21]) was 140000 and the IC50 (Interstitial collagenase) was 270000 nM. The Ki (Stromelysin-1) was 4900 nM and the Ki (Matrilysin) was 150000 nM.
